Results on 1 molecule are retold here after patent US12605362B2, “Eletriptan hydrobromide for treatment of spinal cord injury and improvement of locomotor function” (TECHNOPHAGE, INVESTIGAÇÃO E DESENVOLVIMENTO EM …, priority 2020, dated 2026).

Assay type in all cases: in vivo
For assay [1], the system named is transected zebrafish larvae. Nature of the assay: larval zebrafish phenotypic-based screen for SCI (transected spinal cord, DanioVision swimming activity). The text has this: Tg(mnx1:GFP^m12), abbreviated as hb9:GFP were maintained and bred in constant conditions, by following standard guidelines for fish care and maintenance protocols^27. Zebrafish larvae were used in the phenotypic-based screen for SCI.
A larval zebrafish phenotypic-based screen was used to screen a pool of compounds from a small molecule library (PHARMAKON 1600-MicroSource Discovery Systems, Inc., USA) as previously described by Diana et al. 201928. Briefly, zebrafish larvae were allowed to develop in EM with 1 μM methylene blue until 5 days-post-fertilization (dpf). At 5dpf, zebrafish larvae spinal cords were transected at the level of the anal pore (Diana et al. 2019). At 1 dpi, larvae were randomly distributed into 6-well plates containing EM+10 mM HEPES and exposed during 24 hours to the chemical compounds added to the medium. At 2 dpi, behavioural assessment was performed using DanioVision™ (Noldus Information Technology, the Netherlands) an automated tracking system for zebrafish larvae. Larvae were allowed to freely swim in a 96-well plate (1 larva/well) with EM+10 mM HEPES and their swimming activity was tracked for […], under 10 minutes light-dark cycles (i.e. 3 light cycles and 3 dark cycles). The acquired track data was analysed using the Ethovision X.T. 10 software (Noldus, Wageningen, Netherlands) and only swimming activity obtained in the 3 dark periods were analysed^29.
To accelerate the discover of potential new therapeutics for spinal cord injury (SCI) we used a phenotypic assay that enabled the screening of a pool of chemical compounds from an FDA approved small molecules library. In this phenotypic-based screen, we blindly administered the chemical compounds (25 μM) at 1 day-post-injury (dpi) and we performed the behavioural assessment 24 hours later (i.e. at 2 dpi) as previously described by Chapela D. et al. 2019. The small molecules were first blindly selected, if there was a statistically significant improvement of total distance moved and/or turn angle parameters, which were chosen as indicators of locomotor function. […]

Assay [2] relates to mice with T9 contusion type of injury. The experiment in a line: PDGFRβ / CD31 (PECAM-1) double immunohistochemistry, vasculature association. The note with it: sections 1000 μm from epicentre, 42 dpi, vs Vehicle. The protocol:
(§1) A moderate-severe contusion-type of injury was performed on adult C57BL/6 female mice (10-12 weeks) with an Infinite Horizon Impactor (PSI)^30. All surgeries were performed under aseptic conditions. Briefly, under deep anesthesia with Ketamine and Xylazine (120 mg/kg and 16 mg/kg respectively, i.p.) mice received a dorsal laminectomy at the level of 9th thoracic vertebra (T9). After securing the lateral processes of the 8th thoracic vertebra (T8) and 10th thoracic vertebra (T10) with a stainless-steel impactor tip, a controlled force-defined impact at 75 kdyne was delivered to the exposed spinal cord^28,30. […] Weight was monitored daily until 15 days-post-injury (dpi) and then weekly for the duration of the study and a high caloric pellet (Supreme Mini-Treats™ S05478 and S05472) was provided as a dietary supplement since a 10% weight loss was typically observed in this SCI model upon injury. […]
For immunohistochemistry in sections, OCT was removed from the cryosections using PBS (30 minutes). […] For activated microglia quantification, sections were counterstained with DAPI. […]
To infer if increased levels of PDGFRβ^+ detected on the extremities of the lesion extents were associated with blood vessels we decided to performed a double immunohistochemistry using a pericyte marker PDGFRβ and an endothelial cell marker CD31 (PECAM-1) (FIG. 7). […]

Assay [3] shares this test system. Nature of the assay: acetone evaporation assay (cold allodynia) after T9 contusion SCI. The note with it: 14 dpi and 42 dpi, vs Vehicle. How it is done: as §1, with “cord^28,30. Then, muscle and skin were closed with 4.0 polyglycolic acid (PGA) absorbable sutures (Safil, G1048213). In this study, mice were excluded when the actual displacement value was outside the interval 500-700 μm or if the actual force after impact was >2SD 75 Kdyne.” for “cord^28,30.”
An acetone evaporation assay was used to measure the sensitivity to a cold stimulus upon injury^33. […] In each trial, the time spent flicking or licking the hind paw for 60 seconds was measured using a timer and recorded for analysis^34. […]

Where [4] appears, read: 25 μM from 1 dpi, assessed at 2 dpi, dark periods, vs vehicle.

Counter-ions that a name gives are not always drawn.

As for `CN1CCC[C@@H]1Cc1c[nH]c2ccc(CCS(=O)(=O)c3ccccc3)cc12` [Eletriptan Hbr, Eletriptan Hydrobromide], in assay [1] (setting [4]), the total distance moved result is recorded as “rescues motor impairments” and the turn angle result is “rescues motor impairments”. The locomotor impairments result in assay [1] (25 μM in medium from 1 dpi for 24 hours, behavioural assessment at 2 dpi, vs vehicle treated injured larvae) is on record as “rescue locomotor impairments”. The “increased expression of PDGFRβ associated with CD31+ endothelial cells” value in assay [2] is on record as “reduced”. Moreover, in assay [3], the “cumulative reaction time of nocifensive responses” value was “consistently but not a significantly decrease” and the “number of episodes of the cold hypersensitivity” value is reported as “lower number of episodes”.
